{"source": "patent US20250042941A1", "about": "“PEPTIDE HAVING PHYSIOLOGICAL ACTIVITY AND USE THEREOF” (CAREGEN CO., LTD., priority 2021, published 2025)", "key": {"[1]": {"tested_on": "human C28/12 chondrocyte cell line", "assay": "ECM production in chondrocytes, alcian blue staining", "format": "cell-based", "conditions": "peptide 30, 50, 100, 150 μg/ml, day 6, FIG. 2", "experimental": "In order to confirm the cartilage regeneration effect of treatment with the peptide of the present invention containing the amino acid sequence of SEQ ID NO: 1, human-derived chondrocytes were treated with the peptide of SEQ ID NO: 1, and then it was confirmed whether there was an increase in formation of glycosaminoglycan, which is an ECM component.\n(§1) After removing the medium on day 6, 60 μl of 3.7% formalin was added to the 96-well plate to be stained and fixed for 1 minute. After removing the 3.7% formalin, 70 μl of an alcian blue staining solution (50 ml of 3% acetic acid+0.5 g of 1% Asian blue 8GX, pH 2.5) was added, and incubation was performed at 37° C. for 24 hours. Thereafter, the staining solution was removed, washing with triple distilled water and drying were performed, and then observation was performed with a microscope."}, "[2]": {"tested_on": "human C28/12 chondrocyte cell line", "assay": "ECM gene expression in chondrocytes (RT-PCR)", "format": "cell-based", "conditions": "peptide 50 and 100 μg/ml, day 9, mRNA, FIG. 3", "experimental": "Human-derived chondrocytes were treated with the peptide containing the amino acid sequence of SEQ ID NO: 1, and then it was confirmed whether there was an increase in mRNA expression of collagen type II (COL2A1), aggrecan (ACAN), and proteoglycan core protein (PCP), which are ECM components, and GAPDH gene, which is a control.\nTo this end, human C28/12 chondrocyte cell line was distributed in a 6-well plate at a density of 8.9×10^4 cells/well and cultured in DMEM medium (cat. 11995-065, Gibco) for 24 hours. […] After removing the medium on day 9, cells were harvested and RNA was isolated. After synthesizing cDNA using a cDNA synthesis kit (Intron, Korea), PCR was performed for collagen type II, ACAN, PCP, and GAPDH genes using PCR pre-mix (Intron, Korea)."}, "[3]": {"tested_on": "human C28/12 chondrocyte cell line", "assay": "ECM production in three-dimensional culture of chondrocytes (alginate beads, alcian blue or toluidine blue)", "format": "cell-based", "conditions": "peptide 100 and 150 μg/ml, day 9, FIG. 4", "experimental": "Human-derived chondrocytes were treated with the peptide containing the amino acid sequence of SEQ ID NO: 1 in three-dimensional culture, and then it was confirmed whether there was an increase in the formation of glycosaminoglycan, which is an ECM component.\nTo this end, 3×10^6 cells of human C28/12 chondrocyte cell line were suspended in 1 ml of an alginate solution (1.25% alginate, 20 mM HEPES, 150 mM Nacl, pH 7.4), and the alginate solution containing the cells were added dropwise to a polymerization solution (100 mM CaCl2), 10 mM HEPES, pH 7.4), thereby preparing beads. The prepared beads were washed twice with DPBS, and then the beads were distributed in a conical tube containing DMEM medium (5% FBS). […] After removing the medium on day 9, 3.7% formaldehyde was added and fixed for 6 hours. Dehydration was performed using a tissue processor (EtOH 70%, 80%, 90%, 100% I, II, xylene I, II in this order for 30 minutes each), and a paraffin block was prepared by embedding. The paraffin block was sectioned on a glass slide to a thickness of […] and then completely dried for 24 hours or longer. The sections were hydrated (Xylene I, II, EtOH 100% I, II, 90%, 80%, 70% in this order for 3 minutes each) and washed three times by being immersed in running water for 10 seconds. […]"}, "[4]": {"tested_on": "human adipose-derived mesenchymal stem cells (AD-MSCs)", "assay": "Differentiation of mesenchymal stem cells into chondrocytes and ECM production, alcian blue staining", "format": "cell-based", "conditions": "peptide 30, 50, 100, 150 μg/ml, day 15, FIG. 5", "experimental": "Adipose-derived mesenchymal stem cells were treated with the peptide containing the amino acid sequence of SEQ ID NO: 1, and then the effect on chondrogenic differentiation of the stem cells and ECM production was confirmed.\nas §1, with “15,” for “6,”"}, "[5]": {"tested_on": "SOX9 protein", "assay": "Expression of ECM regulator SOX9 in mesenchymal stem cells (Western blot)", "format": "cell-based, human", "conditions": "AD-MSC, peptide 50 and 100 μg/ml, days 3, 7, 14, FIGS. 6A to 6C", "experimental": "Adipose-derived mesenchymal stem cells were treated with the peptide containing the amino acid sequence of SEQ ID NO: 1, and then it was confirmed whether there was an increase in expression of SOX9 protein, which is an ECM regulator.\nAt this time, as a positive control (CM), a solution containing dexamethasone (100 nM)+ascorbic acid (50 μM)+proline (40 μM)+TGFβ1 (10 ng/ml)+1X ITS was used. After removing the medium on days 3, 7, and 14, cells were harvested, a cell lysate was prepared, and Western blot was performed using antibodies (Millipore, USA) against the SOX9 and SOX5 proteins."}, "[6]": {"tested_on": "human AD-MSC cells", "assay": "ECM gene expression in mesenchymal stem cells (RT-PCR)", "format": "cell-based", "conditions": "peptide 50 and 100 μg/ml, days 3, 7, 11, FIGS. 7A to 7C", "experimental": "Adipose-derived mesenchymal stem cells were treated with the peptide containing the amino acid sequence of SEQ ID NO: 1, and then it was confirmed whether there was an increase in expression of cartilage oligomeric matrix protein (COMP), collagen type 11A (COL 11A), PCP, and ACAN (aggrecan) genes associated with the ECM production.\nAfter removing the medium on days 3, 7, and 11, cells were harvested and RNA was isolated. After synthesizing cDNA using a cDNA synthesis kit (Intron, Korea), PCR was performed for COMP, COL 11A, PCP, ACAN, and GAPDH genes using PCR pre-mix (Intron, Korea)."}, "[7]": {"tested_on": "mouse RAW264.7 macrophage cell line", "assay": "Inflammatory cytokine mRNA in macrophages induced by inflammation with TNFα (RT-PCR)", "format": "cell-based", "conditions": "peptide 100 and 150 μg/ml 1 hour, then 20 nM TNF-α 24 hours, FIG. 8", "experimental": "In addition to the cartilage regenerative activity confirmed in Experimental Examples 1 to 6, in order to confirm the anti-inflammatory effect according to the treatment with the peptide containing the amino acid sequence of SEQ ID NO: 1 of the present invention, mouse RAW264.7 macrophage cell line was treated with TNF to induce inflammation, and the expression levels of TNFα and IL-18, which are inflammatory cytokines, and Cox2 gene, which is an inflammation-inducing marker, were confirmed. The cytokine TNFα was treated to induce inflammation. Since TNFα corresponds to a signal transduction protein related to an inflammatory response, IL-18 corresponds to a cytokine that promotes an inflammatory response, and Cox2 is an inflammation-related protein, a degree of the inflammatory response may be confirmed by measuring the expression levels of TNFα, Cox2, and […] genes. To this end, mouse RAW264.7 cell line was distributed in a 6-well plate at a density of 2×10^5 cells/well and cultured in α-MEM medium containing 10% FBS for 24 hours. The medium was replaced with serum-free α-MEM medium (1% penicillin) and then fasted for 6 hours. […] After 1 hour, the cells were treated with 20 nM TNF-α and incubated for 24 hours. Thereafter, the cells were harvested and RNA was isolated. […]"}, "[8]": {"tested_on": "COX2 protein", "assay": "COX2 protein in macrophages induced by inflammation with TNFα (Western blot)", "format": "cell-based, mouse", "conditions": "RAW264.7, peptide 100 and 150 μg/ml 1 hour, then 20 nM TNF-α 24 hours, FIG. 9", "experimental": "In addition to the results of Experimental Example 7, in order to further confirm the anti-inflammatory effect of the treatment with the peptide containing the amino acid sequence of SEQ ID NO: 1 of the present invention, mouse RAW264. 7 macrophage cell line was treated with TNFα to induce inflammation, and the expression level of COX2 protein, which is an inflammation-inducing marker, was confirmed.\nTo this end, mouse RAW264.7 cell line was distributed in a 6-well plate at a density of 2×10^5 cells/well and cultured in α-MEM medium containing 10% FBS for 24 hours. The medium was replaced with serum-free α-MEM medium (1% penicillin) and then fasted for 6 hours. […] After 1 hour, the cells were treated with 20 nM TNF-α and incubated for 24 hours. Thereafter, the cells were harvested, a cell lysate was prepared, and then Western blot was performed using antibodies against the COX2 protein (Cell Signaling Technology, USA)."}, "[9]": {"tested_on": "mouse RAW264.7 cell line", "assay": "Osteoclast differentiation induced by RANKL, TRAP staining", "format": "cell-based", "conditions": "peptide 10 to 150 μg/ml with RANKL, 4 days, FIG. 10A", "experimental": "After removing the medium, the cells were fixed for 30 seconds and washed twice with double distilled water. Staining was performed with 100 μl of a TRAP staining solution (acid phosphatase kit, Sigma aldrich) at 37° C. for 30 minutes. Thereafter, the staining solution was removed, washing with double distilled water three times and drying were performed, and then observation was performed with a microscope."}, "[10]": {"tested_on": "mouse RAW264.7 cell line", "assay": "Cytotoxicity / cell proliferation, CCK-8 assay", "format": "cell-based", "conditions": "peptide 10, 30, 50, 100, 150 μg/ml, 3 days", "experimental": "The effect of the peptide of the present invention on cell proliferation was confirmed using CCK-8 assay. CCK-8 reagent is reduced by cellular dehydrogenase to produce a colored product, and the proliferation of cells may be confirmed through a difference in absorbance using this.\nAfter removing the medium, CCK-8 solution (Dojindo, CCK-8 kit) was diluted 10 times in the culture medium and treated at 100 μl each. During incubation at 37° C., absorbance at a wavelength of 450 nm was measured using a microplate reader at 30-minute intervals."}, "[11]": {"tested_on": "NFATc1 protein", "assay": "NFATc1 protein in RANKL-induced osteoclast differentiation (Western blot)", "format": "cell-based, mouse", "conditions": "RAW264.7, peptide 50 and 100 μg/ml with RANKL, day 1 of induction, FIG. 11", "experimental": "Mouse RAW264. […] After removing the medium on day 1 of induction, cells were harvested, a cell lysate was prepared, and Western blot was performed using antibodies (Millipore, USA) against NFATc1 protein."}, "[12]": {"tested_on": "mouse RAW264.7 macrophage cell line", "assay": "Actin ring formation in osteoclasts induced by RANKL (immunofluorescence)", "format": "cell-based", "conditions": "peptide 50 and 100 μg/ml with RANKL, 4 days, FIG. 12", "experimental": "In addition to the results of Experimental Examples 9 and 10, in order to further confirm the effect of inhibiting osteoclast differentiation according to the treatment with the peptide containing the amino acid sequence of SEQ ID NO: 1 of the present invention, mouse RAW264. […] After removing the medium, the cells were washed three times with cooled PBS and fixed with 4% paraformaldehyde for 30 minutes. The cells were washed three times with cooled PBS for 5 minutes, and then the cells were permeabilized with 0.3% Triton X-100 in PBS for 30 minutes. The cells were washed three times with cooled PBS for 5 minutes, and the cells were blocked with filtered 3% BSA in PBS for 1 hour with stirring. Incubation was performed with primary antibodies (Rhodamin (Red) [Invitrogen™]) diluted to 1:100 with a blocking medium with stirring for 2 hours. The cells were blocked from light and washed three times with PBS for 15 minutes with stirring, DAPI mounting medium (VECTASHIELD® MOUNTING MEDIUM with DAPI) was added, and then each well was covered with a cover slip and observed with a microscope."}, "[13]": {"tested_on": "TRAP", "conditions": "RAW264.7; peptide 10, 30, 50, 100, 150 μg/ml with RANKL; 4 days; absorbance 405 nm; concentration-dependent; FIG. 10C", "method": "Mouse RAW264.7 cell line was distributed in a 96-well plate at a density of 1.7×10^3 cells/well and cultured in DMEM medium for 24 hours. After 24 hours, the peptide of SEQ ID NO: 1 was treated at concentrations of 10, 30, 50, 100, and 150 μg/ml together with RANKL, and then differentiation of osteoclasts was induced for 4 days. The cells were treated with 100 μl of a TRAP activity solution (TRAP buffer (0.1 sodium citrate+15 ml of 50 μM sodium tartrate [pH 5.0])+4-nitrophenly phosphate disodium salt hexahydrate, sigma, 1 tablet mix), incubated at 37° C. for 1 hour, and treated with 10 μl of 2 N NaOH. Absorbance at a wavelength of 405 nm was measured using a plate reader."}}, "data": [{"sequence": "ACDWGLWWLC (peptide having cartilage regeneration activity) [SEQ ID NO: 1]", "values": [{"measurement": "ECM production (glycosaminoglycan formation) in chondrocytes", "setting": "[1]", "result": "promoted ECM production"}, {"measurement": "expression of ACAN (aggrecan) gene", "setting": "[2]", "result": "promoted the expression"}, {"measurement": "expression of PCP (proteoglycan core protein) gene", "setting": "[2]", "result": "promoted the expression"}, {"measurement": "expression of collagen type II (COL2A1) gene", "setting": "[2]", "result": "promoted the expression"}, {"measurement": "formation of glycosaminoglycan (ECM component) in three-dimensional culture of chondrocytes", "setting": "[3]", "result": "promoted the formation of glycosaminoglycan"}, {"measurement": "chondrogenic differentiation of adipose-derived mesenchymal stem cells", "setting": "[4]", "result": "promoted the chondrogenic differentiation"}, {"measurement": "production of glycosaminoglycan (ECM component) in adipose-derived mesenchymal stem cells", "setting": "[4]", "result": "promoted"}, {"measurement": "production of SOX9 protein (ECM regulator)", "setting": "[5]", "result": "increased production of SOX9 protein"}, {"measurement": "expression of ACAN gene", "setting": "[6]", "result": "promoted the expression"}, {"measurement": "expression of COL 11A gene", "setting": "[6]", "result": "promoted the expression"}, {"measurement": "expression of COMP gene", "setting": "[6]", "result": "promoted the expression"}, {"measurement": "expression of PCP gene", "setting": "[6]", "result": "promoted the expression"}, {"measurement": "expression of inflammatory cytokine genes (TNFα, IL-1β, Cox2 mRNA)", "setting": "[7]", "result": "inhibited the expression of inflammatory cytokine genes"}, {"measurement": "increase in inflammatory proteins (COX2 protein)", "setting": "[8]", "result": "inhibited the increase in inflammatory proteins"}, {"measurement": "differentiation into osteoclasts induced by RANKL", "setting": "[9]", "result": "inhibited the differentiation into osteoclasts"}, {"measurement": "toxicity to mouse macrophages", "setting": "[10]; CCK-8, FIG. 10B", "result": "not toxic"}, {"measurement": "CCK-8 absorbance at 450 nm (cell proliferation) versus untreated", "setting": "[10]; FIG. 10B", "result": "the absorbance was higher"}, {"measurement": "production of NFATc1 protein", "setting": "[11]", "result": "inhibited the production of NFATc1 protein"}, {"measurement": "formation of actin rings", "setting": "[12]", "result": "inhibited the formation of actin rings"}, {"measurement": "activity of TRAP (marker of osteoclasts)", "setting": "[13]", "result": "inhibited the activity of TRAP"}]}]}
